Reference: patent US20230124492A1, “COMPOSITIONS AND METHODS FOR SUBSTITUTED 7-(PIPERAZIN-1-YL)PYRAZOLO[1,5-A]PYRIMIDINE ANALOGS AS INHIBITORS OF KRAS” (The Board of Regents of the University of Texas System, priority 2019, published 2023)

Legend:
[1] = biological target: T1, WT KRAS (Homo sapiens, UniProt P01116); assay: SOS-mediated nucleotide exchange assay, WT KRAS; assay type: biochemical; settings: for SOS-mediated nucleotide exchange WT, single-dose test (effect / No effect): 25 microMolar ligand; for EC50: SOS-mediated nucleotide exchange, dose-response
T1 sequence (P01116 1-188 isoform P01116-2): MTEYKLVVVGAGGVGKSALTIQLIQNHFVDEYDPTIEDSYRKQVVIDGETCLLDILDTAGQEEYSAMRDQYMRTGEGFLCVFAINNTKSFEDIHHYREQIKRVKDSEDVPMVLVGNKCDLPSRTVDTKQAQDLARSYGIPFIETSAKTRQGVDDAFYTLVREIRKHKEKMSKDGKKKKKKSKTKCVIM
Procedure: (§1) In other experiments, the compounds disclosed herein can be tested for their abilities to affect rates of intrinsic and SOS-catalyzed nucleotide exchange and release. These assays use fluorescently-labeled BODIPY-GDP (BGDP) and BODIPY-GTP (BGTP), which have increased fluorescence intensity when bound to KRAS. Rate of nucleotide exchange is determined by rate of increase in fluorescence after BGTP is added to GDP-KRAS in the absence or presence of SOS Rate of nucleotide release is determined from rate of decrease in, fluorescence when excess GTP is added to KRAS loaded with BGDP in the presence or absence of SOS, where SOS is “Sons of Sevenless” referring to a set of genes encoding guanine nucleotide exchange factors.
(§2) Solutions of ligand (0 to 50 μM) are mixed with equal volumes of KRAS (fixed concentration) and fluorescence spectra are obtained. The difference spectra (between KRAS-ligand mixture and ligand alone) are plotted and the area under the curve is obtained. Kd is estimated from the plot of area versus the ligand concentration. SOS-mediated nucleotide rate was monitored using the fluorescence intensity increase of BODIPY-GTP (B GTP) as it displaces GDP from KRAS. The reaction mixture (100 μL, 96 well plate) contained 0.5 μM K-Ras-GDP, 0.5 μm B-GTP, 0.5 μM SOS and varying concentrations of ligands (0 to 25 μM). B-GTP and SOS mixture was added just before measurements(excitation: 485 nm, emission: 510 nm; TECAN Infinite 200 plate reader). The reaction was monitored for 1 hour. The experiments were conducted with minimal light, Fluorescence intensities were normalized with respect to the value obtained at 120 s and the traces were fit with exponential function (Igor Pro, Wavemetrics).

[2] = biological target: T2, G12D KRAS (Homo sapiens, UniProt P01116, G12D); assay: Intrinsic fluorescence (IF) binding affinity, G12D KRAS bound to GNP
T2 sequence (P01116 1-188 isoform P01116-2 G12D): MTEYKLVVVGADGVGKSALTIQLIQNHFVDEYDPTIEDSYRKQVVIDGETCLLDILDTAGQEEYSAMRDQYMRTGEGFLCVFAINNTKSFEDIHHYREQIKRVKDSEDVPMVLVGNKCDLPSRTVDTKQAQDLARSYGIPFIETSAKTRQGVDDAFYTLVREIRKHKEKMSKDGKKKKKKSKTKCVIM
Procedure: (§3) FIGS. 2A-I illustrates the measurements of binding affinity of ligands to wild type (WT) or G120 KRAS bound to the GTP analogue GNP and, for selected exemplary embodiments, effect of ligands on the rate of SOS-mediated nucleotide exchange reaction. Binding affinity was determined using intrinsic fluorescence, which made use of the ligands' intrinsic fluorescence and the accompanying change (decrease or increase in intensity) upon binding to KRAS.
as §3, with “G12D” for “G120”, “reaction,” for “reaction.”
as §2
(§4) Note: For FIGS. 1A-H 1 (as well as one of the curves in FIGS. 2A-I), dissociation constant (Kd) was determined using either Microscale Thermophoresis (MST) or Intrinsic Fluorescence (IF) assay. MST assay uses fluorescence to monitor movement of molecules in response to temperature gradient created by infrared laser.

[3] = biological target: wild type (WT) KRAS (Homo sapiens, UniProt P01116); assay: Intrinsic fluorescence (IF) binding affinity, WT KRAS bound to GNP
Chain of wild type (WT) KRAS (P01116 1-188 isoform P01116-2): as the sequence (P01116 1-188 isoform P01116-2) above
Procedure: as §3
as §3, with “G12D” for “G120”, “reaction,” for “reaction.”
as §2, §4

[4] = biological target: T2, G12D KRAS; assay: Microscale thermophoresis (MST) Kd, G12D KRAS; assay type: binding
Procedure: (§5) Measurement of compound binding affinity to KKRAS using microscale thermophoresis (MST). MST is based on the movement of molecules in response to temperature gradient. […] KRAS was buffer-exchanged in the labeling buffer (40 mM HEPES, pH 7.5, 5 mM MgCl2, and 500 mM NaCl) using a spin column (provided in the kit) The concentration of the eluted protein was adjusted (10 to 20 μM) and 2-3 fold concentration of the dye (in labeling buffer) was added (200 μL final volume), The solution was incubated for 30 minutes at room temperature in the dark. Labeled KRAS was purified using the column provided in the kit or MST measurements, 16 point serial dilutions of ligands were made in MST Assay Buffer (40 mM HEPES, pH 7.5, 5 mM MgCl2, 100 mM NaCl+0.05% Tween-20+2-4% DMSO) and added to 100 nM KRAS. The solutions were loaded in capillaries and measurements were done using 20% LED power and 40% MST power. The data were fit in Igor Pro using Hill equation or the function in the instrument software.
(§6) Microscale thermophoresis (MST) assays were used to measure the affinity of lead compound analogs for KRAS. In a typical experiment, 100 nM KRAS labeled with a dye amine-reactive red NT-647 from NanoTemper) was mixed with different concentrations of ligand and incubated in a binding buffer (40 mM HEPES, pH 7.5, 5 mM MgCl2, 150 mM NaCl, 0.05% polysorbate 20, and 2% DMSO) at room temperature for 10 min before being loaded into a capillary. Thermophoresis is carried out and dissociation constant calculated by monitoring changes in fluorescence intensity. A monolith NT.115 Reader from NanoTemper can be used for MST experiments, with 40% MST and 20% LED power.
as §4

[5] = biological target: T1, WT KRAS; assay: Intrinsic nucleotide exchange assay, WT KRAS; assay type: biochemical; settings: for Intrinsic nucleotide exchange WT, single-dose test (effect / No effect): 25 microMolar ligand; for EC50: intrinsic nucleotide exchange, dose-response
Procedure: as §1

[6] = biological target: KRAS (Homo sapiens, UniProt P01116, G12D); assay: Microscale thermophoresis (MST) binding affinity to KRAS (Table 1); settings: 100 nM labeled KRAS, read-out: kD (dissociation constant)
Chain of KRAS (P01116 whole entry G12D): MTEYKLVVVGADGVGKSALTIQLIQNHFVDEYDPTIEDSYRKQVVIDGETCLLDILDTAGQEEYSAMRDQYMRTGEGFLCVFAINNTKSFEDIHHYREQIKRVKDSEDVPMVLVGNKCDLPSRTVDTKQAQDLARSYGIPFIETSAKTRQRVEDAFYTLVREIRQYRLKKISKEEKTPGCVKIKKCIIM
Procedure: as §5, §6
Dissociation constants (IQ)) calculated from the thermophoresis results of selected compounds according to the present disclosure are presented in Table 1 below.
as §4

| Structure (SMILES) | SOS-mediated nucleotide exchange WT, single-dose test (effect / No effect) [1] | Kd [2] | Kd [3] | also measured |
| --- | --- | --- | --- | --- |
| CCOC(=O)N1CCN(c2cc(-c3ccccc3)nc3c(-c4ccccc4)c(C)nn23)CC1 [C27″] | no effect in single dose @ 25 uM |  |  |  |
| COc1ccccc1N1CCN(c2cc(-c3ccccc3)nc3c(-c4ccccc4)c(C)nn23)CC1 [Compound C18] |  |  |  | Kd [4]: > 86 µM |
| Cc1nn2c(N3CCN(CCO)CC3)cc(-c3nccn3C)nc2c1-c1ccccc1 [C23″] | effect in single- dose @ 25 uM |  |  | Kd [4]: > 200 µM; Intrinsic nucleotide exchange WT, single-dose test (effect / No effect) [5]: effect in single- dose @ 25 uM |
| COCCN1CCN(c2cc(-c3ccccc3)nc3c(-c4ccccc4)c(C)nn23)CC1 [C17″] |  |  |  | Kd [4]: > 76 µM |
| Cc1nn2c(N3CCN(CCO)CC3)cc(-c3ccc(O)cc3)nc2c1-c1ccccc1 [C30″] |  | 18.4 ± 10 µM | 12.2 ± 0.4 µM | EC50 [1]: 15.9 ± 3.4 µM |
| CCc1nn2c(N3CCN(CCO)CC3)cc(-c3ccccc3)nc2c1-c1ccccc1 [C26″] | effect in single- dose @ 25 uM |  |  | Intrinsic nucleotide exchange WT, single-dose test (effect / No effect) [5]: effect in single- dose @ 25 uM |
| OCCN1CCN(c2cc(-c3ccccc3)nc3c(-c4ccccc4)c(-c4ccccc4)nn23)CC1 [C14″] |  | 11.2 ± 0.2 µM | 12.3 ± 0.1 µM | Kd [4]: 0.88 ± 0.4 µM; EC50 [5]: 12.4 ± 4.8 µM |
| Cc1nn2c(N3CCN(CCO)CC3)cc(-c3ccc(F)cc3)nc2c1-c1ccccc1 [C21″] |  | 6.8 ± 0.5 µM | 4.6 ± 0.2 µM | EC50 [1]: 18.8 ± 3.3 µM; Kd [4]: 0.52 ± 0.2 µM; EC50 [5]: 34 ± 6.4 µM |
| Cc1cc(N2CCN(CCO)CC2)n2nc(C)c(-c3ccccc3)c2n1 [C13″] |  |  |  | EC50 [1]: 57.8 ± 4 µM; EC50 [5]: 28.8 ± 4 µM |
| OCCN1CCN(c2cc(-c3ccccc3)nc3c(-c4ccccc4)c(-c4ccccc4)nn23)CC1 [Compound C3] |  |  |  | Kd [6]: 0.88 ± 0.36 µM |
| Cc1nn2c(N3CCN(CCO)CC3)cc(-c3ccccc3)nc2c1-c1ccc(O)cc1 [C31″] | No effect in single dose @ 25 uM |  |  | Intrinsic nucleotide exchange WT, single-dose test (effect / No effect) [5]: No effect in single dose @ 25 uM |
| Cc1nn2c(N3CCN(CCO)CC3)cc(-c3cc(F)cc(F)c3)nc2c1-c1ccccc1 [C33″] | No effect in single dose @ 25 uM | 79 ± 78 µM |  | Intrinsic nucleotide exchange WT, single-dose test (effect / No effect) [5]: effect in single- dose @ 25 uM |
| OCCN1CCN(c2cc(-c3ccccc3)nc3c(-c4ccccc4)c(C(F)(F)F)nn23)CC1 [C32″] | effect in single- dose @ 25 uM |  |  | Intrinsic nucleotide exchange WT, single-dose test (effect / No effect) [5]: effect in single- dose @ 25 uM |
| Cc1nn2c(NCCN(C)C)cc(-c3ccccc3)nc2c1-c1ccccc1 [Compound C4] |  |  |  | Kd [6]: 0.99 ± 0.14 µM |
| Cc1nn2c(N3CCN(CCO)CC3)cc(-c3ccccc3)nc2c1-c1ccccc1 [C11″] |  | 4.54 ± 0.1 µM |  | Kd [4]: 0.87 ± 0.1 µM |
| COc1ccc(-c2cc(N3CCN(CCO)CC3)n3nc(C)c(-c4ccccc4)c3n2)cc1 [C25″] | effect in single- dose @ 25 uM |  |  |  |
| COCCN1CCN(c2cc(-c3ccccc3)nc3c(-c4ccccc4)c(C)nn23)CC1 [Compound C6] |  |  |  | Kd [6]: > 76 µM |
| COc1ccccc1N1CCN(c2cc(-c3ccccc3)nc3c(-c4ccccc4)c(C)nn23)CC1 [Compound C7] |  |  |  | Kd [6]: > 86 µM |
| Cc1nn2c(NCCN(C)C)cc(-c3ccccc3)nc2c1-c1ccccc1 [Compound C15] |  |  |  | Kd [4]: 0.99 ± 0.1 µM |
| Cc1nn2c(N3CCN(CCO)CC3)cc(-c3ccncc3)nc2c1-c1ccccc1 [C22″] | no effect in single dose @ 25 uM |  |  | Kd [4]: > 100 µM |
| Cc1nn2c(N3CCN(CCO)CC3)cc(-c3ccccc3)nc2c1-c1cc(F)cc(F)c1 [C28″] | No effect in single dose @ 25 uM | 23.5 ± 0.8 µM | 21.7 ± 0.4 µM | Intrinsic nucleotide exchange WT, single-dose test (effect / No effect) [5]: effect in single- dose @ 25 uM |
| Cc1nn2c(N3CCN(CCO)CC3)cc(-c3cc(O)cc(O)c3)nc2c1-c1ccccc1 [C35″] | No effect in single dose @ 25 uM | 21.6 ± 4 µM | 8.4 ± 0.2 µM | Intrinsic nucleotide exchange WT, single-dose test (effect / No effect) [5]: effect in single- dose @ 25 uM |
| OCCN1CCN(c2cc(-c3ccccc3)nc3c(-c4ccccc4)c(C4CC4)nn23)CC1 [C29″] | effect in single- dose @ 25 uM |  |  |  |
| Cc1cc(NCCN(C)C)n2nc(C)c(-c3ccccc3)c2n1 [Compound C16] |  |  |  | Kd [4]: > 200 µM |

Second part, led by results:

| SOS-mediated nucleotide exchange WT, single-dose test (effect / No effect) [1] | Kd [2] | Kd [3] | Structure (SMILES) | also measured |
| --- | --- | --- | --- | --- |
|  | 63.1 ± 5.3 µM | 19.1 ± 0.1 µM | OCCN1CCN(c2cc(-c3ccccc3)nc3c(-c4ccccc4)c(-c4ccc(O)cc4)nn23)CC1 [Compound C38] |  |
|  |  | 5 to 15 µM | Cc1cc2nc(-c3ccccc3)cc(N3CCN(CCO)CC3)n2n1 [Compound C44] |  |
|  | 11.8 ± 0.2 µM | 22.6 ± 0.3 µM | COc1ccc(-c2nn3c(N4CCN(CCO)CC4)cc(-c4ccccc4)nc3c2-c2ccccc2)cc1 [Compound C37] |  |
|  |  | 5 to 15 µM | COCc1nn2c(N3CCN(CCO)CC3)cc(-c3ccccc3)nc2c1-c1ccccc1 [Compound C43] |  |
|  |  | ~20 µM | Cc1nn2c(N3CCN(CCO)CC3)nc(-c3ccccc3)nc2c1-c1ccccc1 [Compound C41] | EC50 [5]: 15 to 25 µM |
|  | 25.7 ± 0.2 µM | 63.1 ± 5.3 µM | Cc1nn2c(N3CCC(CCO)CC3)cc(-c3ccccc3)nc2c1-c1ccccc1 [Compound C40] |  |
|  | 22.4 ± 8 µM | 20.6 ± 0.4 µM | OCCN1CCN(c2cc(-c3ccccc3)nc3c(-c4ccccc4)c(-c4cc[nH]c4)nn23)CC1 [Compound C36] |  |
|  |  | 28.3 ± 5.4 µM | Cc1nn2c(NCCCN(C)C)cc(-c3ccccc3)nc2c1-c1ccccc1 [Compound C45] |  |
|  | 22.9 ± 2.2 µM | 39.5 ± 1.9 µM | Cc1nn2c(N3CCC(CCO)CC3)cc(-c3ccc(F)cc3)nc2c1-c1ccccc1 [Compound C39] |  |
